Laboratory results: patent US20120149100A1, “CARDIOMYOCYTE CELL POPULATIONS” (Mount Sinai School of Medicine, priority 2005, published 2012)

Columns and labels:
[1] = tested on: Flk-1+ cells isolated from day 3.25 Ainv-Notch4 EBs; experiment: Cardiac assay of reaggregated Flk-1+ cells from Ainv-Notch4 EBs; assay type: cell-based
Protocol: (§1) Sorted cells were reaggregated for 24 hours in StemPro-34 serum-free medium (hwitrogen) containing 2 mM L-glutamine (GIBCO/BRL), transferrin (200 μg/ml), 0.5 mM ascorbic acid and 4.5×10^−4 M MTG at 3×10^5 cells per ml in ultra-low-attachment 24-well plates (Costar). Single aggregates or pools of aggregates were replated in gelatin-coated 96- or 24-well plates containing SternPro with 2 mM L-glutamine for cardiac culture. Following 2 to 4 days of culture the proportion of aggregates containing contracting cells was scored and the number of Troponin T-positive cells was evaluated by flow cytometric analyses. For the aggregated and cardiac cultures, doxycycline (Dox) was used at 0.5 μg/ml and γ-secretase inhibitor X at 5 μM (dissolved in DMSO). The same concentration of DMSO was added to the control cultures. Medium was changed everyday to provide fresh Dox and inhibitor.
To investigate the potential of Notch4 to initiate a cardiogenic program in this early stage of hemangioblast population, Flk-1^+ cells isolated from day 3.25 Ainv-Notch4 EBs were reaggregated for 24 hours in the presence or absence of Dox as described above. The resulting aggregates were then cultured in gelatin-coated microliter wells containing serum-free media (hereafter referred to as cardiac cultures). These conditions efficiently support cardiomyooyte development from cardiogenic mesoderm (Kouskoff et al. (2005) Proc. Natl. Acad. Sci. 102:13170-13175). Both single aggregates and pools of aggregates were cultured for 2-3 days. Following this maturation step, the cultures of single aggregates were scored for the presence of contracting cells indicative of cardiomyocyte differentiation. None of the aggregates generated in the absence of Dox (−Dox/−Dox) contained contracting cells (FIG. 3A). Rather, these aggregates underwent heniatopoietio differentiation as indicated by the development of hemoglobinized erythroid cells, an observation consistent with the hemangioblast potential of this population. […] (FIG. 3B, right panel). Few cTnT cells were atected among the adhesive cells generated from non-induced aggregates (FIG. 3B, left panel). Cultures of the pooled induced aggregates generated extensive areas of contracting cells. Contracting cells were not detected in the cultures of the non-induced aggregates. Flow cytometric analysis of the differentiated progeny from pooled inducedaggregates confirmed the dramatic cardiogenic effect of Notch4 as greater than 60% of the entire cell population expressed cTnT after 2 days in the cardiac cultures (+Dox/−Dox, FIG. 3C). Less than 1% of the cells generated from the non-induced population expressed cTnT (−Dox/−Dox, FIG. 3C). […]

[2] = tested on: Flk-1+ cells from Bry-GFP ES cells on OP9-DL1 cells; experiment: Culture of Flk-1+ cells on Dll-1 expressing OP9 stromal cells; assay type: cell-based; details: inhibitor 5 μM; 3 days of culture
Protocol: OP9-DL1 cells described by Schmitt et al. (2004) Nat. Immunol. 5:410-417 were cultured in a 24-well plate and irradiated before use. Day 3.25 EB-derived Flk-1^+ cells (3×10^4 per well) were seeded onto OP9 cells in the same medium used for the cardiac cultures. γ-Secretase inhibitor X (dissolved in DMSO) at 5 μM or a corresponding volume of DMSO was included in the cultures. Medium was changed everyday to supply fresh inhibitor. After 3 days of culture, the cells were harvested and subjected to flow oytometric analysis to determine the number of Troponin T-positive cells.
Following 3 days of culture, areas of contracting cells were detected on the OP9 stromal cells, with approximately 24% of the cells expressing cTnT (FIG. 6A).

[3] = tested on: GFP-Bry+/Flk-1- fraction from GFP-Bry/Ainv-Notch4 ES cells; experiment: Cardiac assay of reaggregated GFP-Bry+/Flk-1- cells; assay type: cell-based
Protocol: as §1
Cardiac potential has been mapped to the Flk-1^− fraction of brachytury-expressing mesoderm (GFP-Bry^+/Flk-1^−) at early singes of EB development (Kouskoff et al., supra). To investigate the role of Notch4 during cardiac differentiation of this mesoderm, the GFP cDNA was targeted to the brachyury locus of Ainv cells to enable the overexpression of Notch4 in the GFP-Bry^+/Flk-1^− population. The GFP-Bry^+/Flk-1^− fraction was isolated from clay 3.25 EBs derived from the GFP-Bry/Ainv-Notch4 ES cells, reaggregated for 1 day and the resultant aggregates plated in cardiac cultures. γ-Secretase inhibitor or Dox was added to the cells either during the reaggregation step or to the cardiac cultures to further define the stage specific effects of Notch4. Three days following differentiation of the aggregates in the cardiac cultures, the proportion of cTnT-positive cells and the expression of cardiac genes were analyzed (FIG. 7). […] As expected, this population expressed the spectrum of cardiac genes. Induction of Notch4 during the reaggregation stage (+Dox/−Dox) enhanced cardiomyocyte development over that observed in the control cultures (FIG. 7C). […]

[4] = tested on: posterior primitive streak explants; experiment: E7.5 primitive streak explant cultures; assay type: cell-based, mouse; details: inhibitor 10 μM; 5 days of culture
Protocol: Female swiss webster mice (Taconic) were mated with male GFP-Bry^+/− mice described by Huber et al., (2004) Nature 432:625-630. Pregnant mice were sacrificed 7.5 days after mating and the embryos were isolated. Dissections were performed under a Leica MZFLIII fluorescence dissecting stereomicrosope to visualize the GFP expression in the primitive streak (PS). Using tungsten needles (Fine Science tools), the PS of GFP-Bry^+/− embryos were isolated and separated into posterior and anterior regions. Individual anterior and posterior PS pieces were plated in gelatin-coated 96-well dishes with medium for cardiac cultures. γ-Secretase inhibitor at 10 μM or a corresponding volume of DMSO was included in the cultures. Medium was changed everyday to provide fresh inhibitor. After 3-5 days, the explants were scored for the presence of contracting foci and harvested for gene expression analysis.
When isolated PPS are plated in the cardiac cultures contracting cardiomyocytes can be detected within 3 to 5 days. To investigate whether Notch signalling is required for the development of the cardiomyocyte lineage from embryo-derived tissues, PPSs were cultured in the presence or absence of γ-secretase inhibitor and then analyzed for the development of contracting cells and for the expression of cardiac genes. […]

[5] = tested on: BL-CFC in day 3.25 Flk-1+ cells; experiment: Blast colony (BL-CFC) assay; assay type: cell-based
Protocol: The blast and hematopoietic colony assays were performed as described Kennedy et al., (2003) Metods Enzymol. 365:39-59. Dox was added at 0.5 μg/ml to induce Notch4 expression and y-secretase inhibitor X (L685,458, Calbiochem) at 5 μM to blook Notch signaling in the:blast colony culture. To generate mixed hemangioblastkardiac colonies, blast colony growth was initiated in standard blast colony cultures containing Dox for 24 hours. The developing colonies were then washed from with methycellulose with IMDM containing 10% FCS to remove Dox. The colonies were recultured in blast colony metycellulose supplemented with Erythropoietin (2 U/ml) and IL-3 (1% conditioned medium). Mixed colonies containing an inner cardiac core surrounded by outer hematopoietic cells were picked for analysis at day 7.
To determine if the BL-CFC is the target of the Notch4-induced fate change, day 3.25 Flk-1^+ cells were cultured in the BL-CFC assay in the presence or absence of Dox. In the absence of Dox, this population generated typical blast colonies that appeared as grape-like clusters of cells. When cultured in the presence of Dox, these cells formed compact colonies of tightly packed cells that were easy to distinguish from the blast colonies (FIG. 5A). The number of these compact colonies was similar to the number of blast cell colonies that developed in the non-induced cultures (FIG. 5B). […] None of these colonies expressed gata-1. As shown previously, blast colonies expressed the endothelial genes as well as gata-1. […] With extended time in the methylcellulose cultures, some of the compact colonies generated contracting cells. To quantify the proportion of colonies that generated contracting cells, individual colonies were picked at day 7 of culture and replated in microtiter wells in the cardiac cultures. Approximately 70% of the compact colonies generated contracting cells between 2 and 7 days of culture. The contracting cells expressed cTnT, confirming that they were cardiomyocytes (FIG. 5D).

[6] = tested on: Ainv-Notch4 ES cells; experiment: Flow cytometric analysis for HA-Notch4 expression after induction; assay type: cell-based; details: one day following Dox 0.5 μg/ml induction
Protocol: Dissociated cells were incubated with biotinylated mAbs (against Flk-1, VE-cad, or CD41) in PBS containing 10% FCS on ice for 30 min. The cells were then washed once and incubated with streptavidin-PE-Cy5 (BD Pharmingen) for another 30 minutes on ice. Following an additional two washes, the cells were analyzed on a FACSCalibur flow cytometer (BectonDicldnson) or sorted on a Moflo cell sorter (Cytomation). For Troponin T or HA staining, cells were fixed in 4% paraformaldehyde (PFA) for 30 minutes and then incubated in a permeabilizing buffer consisting of PBS with 10% FCS and 0.1% saponin (Sigma) for 10 minutes. Following fixing and permeabilization, the cells were washed twice and incubated with an anti-Troponin T (unconjugated mouse antibody, Lab Vision) or anti-HA (conjugated with biotin, Covance) antibody for 30 minutes. After two washes, the cells were incubated with a secondary APC-conjugated goat anti-mouse antibody (for Troponin T antibody) or streptavidin-PE-Cy5 (for biotinylated HA antibody) for 30 minutes. Finally, the cells were washed twice with permeabilizing buffer and then twice with buffer without saponin. […] One day following Dox (0.5 μg/ml) induction, 90% of Ainv-Notch4 ES cells expressed Notch4 as determined by flow cytometric analysis for HA expression (FIG. 2A).

[7] = +Dox+inhibitor/-Dox, inhibitor 5 μM during the reaggregation step
[8] = inhibitor during the aggregation stage (+I/-I)

SMILES | expression of cardiac genes [1, 7] | generation of contracting cells [1, 7] | cardiomyocyte development (cTnT+ cells) [2] | proportion of cTnT-expressing population compared to control ([3]; inhibitor added to the cardiac cultures (-I/+I)) | development of cTnT-positive contracting cells [3, 8] | expression levels of the cardiac genes [3, 8] | PS explants that generated contracting cells [4] | expression of cardiac genes in explants [4] | colony type (blast vs compact colonies) ([5]; inhibitor 5 μM together with Dox 0.5 μg/ml, 4 days) | cell population expressing cTnT ([1]; +Dox/-Dox, pooled aggregates, 2 days in cardiac cultures) | aggregates containing contracting cells ([1]; Flk-1+ cells from day 4 EBs, Dox 24 hours) | Ainv-Notch4 ES cells expressing Notch4 (HA expression) [6] | mixed colonies that generated contracting cells ([5]; Dox exposure limited to 24 hours, replated into cardiac cultures) | compact colonies that generated contracting cells ([5]; colonies formed in presence of Dox, picked at day 7, 2 to 7 days in cardiac cultures)
CC(C)C[C@H](NC(=O)[C@H](Cc1ccccc1)C[C@@H](O)[C@H](Cc1ccccc1)NC(=O)OC(C)(C)C)C(=O)N[C@@H](Cc1ccccc1)C(N)=O [γ-secretase inhibitor] | inhibited | inhibited | inhibited | modestly increased | suppressed | reduced | Less than 10% | inhibited in some but not all of the explants | reversal back to blast colonies |  |  |  |  | 
C[C@H]1c2cccc(O)c2C(=O)C2=C(O)[C@]3(O)C(=O)C(C(N)=O)=C(O)[C@@H](N(C)C)[C@@H]3[C@@H](O)[C@@H]21 [Dox, doxycycline] |  |  |  |  |  |  |  |  |  | greater than 60% | 25% | 90% | 45% | Approximately 70%
